One series deals with TNFα. Put plainly: Inhibition of TNFα secretion in LPS-stimulated hPBMC (ELISA). The format is cell-based. Conditions: Homo sapiens, overnight, read-out: IC50 (nM) for the inhibition of the TNFa secretion. The method, then: The immunomodulatory function of the compound of the present invention was evaluated by detecting its effect on the secretion amount of TNFα and IL-2 in cells from the human peripheral blood mononuclear cells (hPBMC) by the enzyme linked immunosorbent assay (ELISA) method.
The peripheral blood of healthy volunteers was collected by using EDTA anticoagulant tubes, and diluted with phosphate buffered saline (PBS) containing 2% fetal bovine serum (Gibco, Cat. No. 10099-141) in an equal volume ratio. 30 mL of the resulting diluted sample was transferred into a Sepmate-50 centrifuge tube (Stemcell, Cat. No. 86450) to which 15 mL of a density-gradient centrifugation liquid (Sigma, Cat. No. 10771) had been added in advance, and centrifuged at room temperature at 1200×g for 10 minutes. The liquid containing PBMC in the upper layer was transferred to a new 50-mL centrifuge tube, and centrifuged at room temperature at 300×g for 8 minutes. The supernatant was discarded, and the resulting PBMC was resuspended to 5×10^6/mL by using RPMI 1640 medium (Gibco, Cat. No. 72400-047). 80 μL of the resulting suspension was added to each well in a 96-well plate.
Each concentration was further diluted 50-fold with RPMI 1640 medium. 10 μL of each compound solution was added into the cells in the above 96-well plate. The 96-well plate was placed in an incubator, and the cells were cultured at 37° C. and 5% CO2 for 1 hour. 10 μL of LPS (Sigma, Cat. No. L-2880) with a concentration of 100 ng/mL was added, and the cells were continuously cultured in the incubator at 37° C. and 5% CO2 overnight. Supernatants were collected for the detection of TNFα.
TNFα and IL-2 were detected respectively according to each instruction of the ELISA kits (R&D, Cat. No. DY210 and DY202, respectively) to obtain the OD450 values for each well. The group containing 0.2% DMSO medium was used as 0% inhibition or stimulation. The XLfit software was used to plot the compound inhibition or stimulation curve and calculate the corresponding IC50 or EC50.
On the technique in general: ELISA stands for enzyme-linked immunosorbent assay.

Series [1] addresses hERG potassium ion channel (Homo sapiens, UniProt Q12809). The experiment in a line: Blockade of the hERG potassium ion channel (whole cell patch clamp). The format is cell-based. Conditions: HEK293 cells stably overexpressing hERG, pH 7.4, tail current, read-out: The percentage of the inhibition to the hERG current at the solubility of 3 μM (n = 2). The method, then:
The effect of the compound of the present invention on possible arrhythmias was assessed by determining the blockade of the hERG potassium ion channel.
The experiment method was summarized as follows: • Extracellular fluid: 140 mM NaCl, 3.5 mM KCl, 1 mM MgCl2, 2 mM CaCl2, 10 mM D-glucose, 10 mM HEPES, 1.25 mM NaH2PO4, pH=7.4. • Electrode internal solution: 20 mM KCl, 115 mM K-aspartate, 1 mM MgCl2, 5 mM EGTA, 10 mM HEPES, 2 mM Na2-ATP, pH=7.2. • Compound solution: the compound to be tested was dissolved in DMSO and prepared into a stock solution having a concentration of 10 mM, then diluted into the concentration of 3 mM with DMSO, and then diluted into a solution having a concentration of 3 μM with the extracellular solution for subsequent use. • Cell culture: the HEK293 cell line with the stable hERG potassium channel overexpression (Creacell, Cat. No. A-0320) was cultured in a DMEM medium (Gibco, Cat. No. 11995-065) containing […] (Gibco, Cat. No. 1428478) and 0.8 mg/mL G418 (Amresco, Cat. No. E859-5G) at the culture temperature of 37° C. under the carbon dioxide concentration of […]. The spent medium was removed and the cells were washed once with PBS (Gibco, Cat. No. 1009-141). Then 1 mL TrypLE™ Express solution (Gibco, Cat. No. 12604021) was added and the cells were incubated at 37° C. […]. When the cells were detached from the bottom of the dish, 5 mL of complete medium preheated at 37° C. was added. The cell suspension was transferred to a sterile centrifuge tube and centrifuged at 1000 rpm for 5 minutes before cell collection. Cells were inoculated in 6 cm cell culture dishes at the cell inoculation volume of 2.5*10^5 per dish (final volume: 5 mL). Before the patch clamp detection experiment, 3*10^3 cells were plated on the cover slips, cultured in 24-well plates (final volume: 500 μL), and detected 18 hours later. • Voltage stimulation protocol by recording the whole-cell hERG potassium current with the whole cell patch clamp: after forming a whole-cell seal, the cell membrane voltage was clamped at −80 mV. The clamping voltage was depolarized from −80 mV to −50 mV and maintained for 0.5 seconds (as leakage current detection), then stepped to 30 mV and maintained for 2.5 seconds, then quickly returned to −50 mV and maintained for 4 seconds to excite the hERG channel tail current (Peak tail current), the hERG potassium current was recorded every other 10 seconds. Experiment data were collected with EPC-10 amplifier (HEKA) and stored in PatchMaster (HEKA v2x73) software. • Determination: A capillary glass tube (Sutter Instruments) was drawn into a recording electrode with a microelectrode drawing instrument (Sutter Instruments). The cell-loaded cover slip was removed from the 24-well plate placed in the incubator and then placed under an inverted microscope. […] In the whole-cell recording mode, the slow capacitance compensation was performed and the membrane capacitance and the series resistance were recorded, during which the leakage compensation was not applied. After the hERG tail current recorded with the whole cell was stabilized for 3-5 minutes, 8 mL of the compound-free extracellular fluid (blank control) and 8 mL of 3 μM solution of the compound to be tested were sequentially flowed through the recording bath with the gravity perfusion to act on the cells for 5 minutes (or to the current stabilization). The current detected for each cell in the compound-free extracellular fluid was served as its own control. […]
For orientation: hERG is a cardiac potassium channel; its block is linked to QT prolongation.

Four compounds from US20230271933A1, “HETEROCYCLIC IMMUNOMODULATOR” (Beijing Innocare Pharma Tech Co., Ltd., priority 2020, published 2023) can be followed below.

hERG potassium ion channel, sequence (Q12809 whole entry): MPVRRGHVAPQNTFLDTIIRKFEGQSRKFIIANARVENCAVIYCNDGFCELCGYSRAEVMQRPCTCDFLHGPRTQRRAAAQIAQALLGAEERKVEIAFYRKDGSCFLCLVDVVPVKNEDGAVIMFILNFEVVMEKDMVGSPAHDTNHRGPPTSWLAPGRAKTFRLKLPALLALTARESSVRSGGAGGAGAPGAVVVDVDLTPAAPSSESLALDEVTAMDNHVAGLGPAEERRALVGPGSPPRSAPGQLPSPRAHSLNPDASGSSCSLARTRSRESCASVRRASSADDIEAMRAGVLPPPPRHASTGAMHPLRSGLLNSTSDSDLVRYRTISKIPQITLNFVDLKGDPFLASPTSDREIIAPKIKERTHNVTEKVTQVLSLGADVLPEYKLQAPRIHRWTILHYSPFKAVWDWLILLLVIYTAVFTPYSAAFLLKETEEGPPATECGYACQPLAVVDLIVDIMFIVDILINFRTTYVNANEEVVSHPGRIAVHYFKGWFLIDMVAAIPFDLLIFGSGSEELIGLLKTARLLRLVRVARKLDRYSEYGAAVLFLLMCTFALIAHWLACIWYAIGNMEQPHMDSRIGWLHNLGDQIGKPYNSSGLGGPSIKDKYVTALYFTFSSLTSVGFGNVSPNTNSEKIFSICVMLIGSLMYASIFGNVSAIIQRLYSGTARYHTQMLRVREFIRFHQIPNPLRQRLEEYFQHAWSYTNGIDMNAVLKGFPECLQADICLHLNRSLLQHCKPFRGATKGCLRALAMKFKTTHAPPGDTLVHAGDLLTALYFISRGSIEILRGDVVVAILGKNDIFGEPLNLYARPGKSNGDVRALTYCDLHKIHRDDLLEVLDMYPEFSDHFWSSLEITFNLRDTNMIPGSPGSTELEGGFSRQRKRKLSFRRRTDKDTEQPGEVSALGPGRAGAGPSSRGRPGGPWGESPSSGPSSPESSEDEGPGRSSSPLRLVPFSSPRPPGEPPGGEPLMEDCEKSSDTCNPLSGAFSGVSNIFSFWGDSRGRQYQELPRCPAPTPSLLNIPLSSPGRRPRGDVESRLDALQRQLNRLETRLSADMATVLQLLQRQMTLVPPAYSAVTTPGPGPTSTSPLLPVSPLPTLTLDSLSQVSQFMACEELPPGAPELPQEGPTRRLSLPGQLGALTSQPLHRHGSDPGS

Consider `C[C@H](c1ccc(COc2cccc3c2CN([C@H]2CCC(=O)NC2=O)C3=O)cc1)N1CCN(c2ccc(C#N)cc2F)CC1` [Compound 6, 4-(4-((R)-1-(4-(((2-((S)-2,6-dioxopiperidin-3-yl)-1-oxoisoindolin-4-yl)oxy)methyl)phenyl)ethyl)piperazin-1-yl)-3-fluorobenzonitrile], for which the IC50 with TNFα was 2.8 nM. In addition, the inhibition at 5 min, 3 µM in series [1] worked out at 52%.
Consider `C[C@H](c1ccc(COc2cccc3c2CN([C@H]2CCC(=O)NC2=O)C3=O)cc1)N1CCN(c2ccc(C#N)cn2)CC1` [Compound 16, 6-(4-((R)-1-(4-(((2-((S)-2,6-dioxopiperidin-3-yl)-1-oxoisoindolin-4-yl)oxy)methyl)phenyl)-ethyl)piperazin-1-yl)nicotinonitrile], for which, in the series with TNFα, the IC50 came out at 1.3 nM. Moreover, the inhibition at 5 min, 3 µM in series [1] came to 58%.
Turning to `C[C@H](c1ccc(COc2cccc3c2CN([C@H]2CCC(=O)NC2=O)C3=O)cc1)N1CCN(c2ccc(C#N)nc2)CC1` [Compound 21, 5-(4-((R)-1-(4-(((2-((S)-2,6-dioxopiperidin-3-yl)-1-oxoisoindolin-4-yl)oxy)methyl)phenyl)ethyl)piperazin-1-yl)-2-cyanopyridine], in the series on TNFα, the concentration for half-maximal inhibition (IC50) came to 0.5 nM. Also, the inhibition at 5 min, 3 µM in series [1] amounted to 49%.
For `C[C@H](c1ccc(COc2cccc3c2CN([C@H]2CCC(=O)NC2=O)C3=O)cc1)N1CCN(c2ncc(C#N)cc2F)CC1` [Compound 22, 6-(4-((R)-1-(4-(((2-((S)-2,6-dioxopiperidin-3-yl)-1-oxoisoindolin-4-yl)oxy)methyl)phenyl)-ethyl)piperazin-1-yl)-5-fluoronicotinonitrile], in that order: 4.7 nM and 20%.

For orientation: IC50 means the midpoint of a concentration-inhibition curve. Usually inhibition stands for the drop in the measured response relative to a control, in per cent.
